Patent US20240299299A1, “COMPOSITIONS AND METHODS FOR INCREASING THE EFFICACY OF IMMUNOTHERAPIES AND VACCINES” (The Regents of the University of Michigan, priority 2021, published 2024)

What was measured:
OT-I CD8+ T cells [1] = experiment: In vitro central memory (Tcm) differentiation of OT-I CD8+ T cells activated with SIINFEKL peptide and IL-2 with metabolites; assay type: cell-based, mice; details: day 8; metabolite-supplemented medium (arginine 3 mM, 3-methylhistidine 3 mM, DHB 100 μM, sodium ferulate 100 μM)
Protocol: (§1) FIG. 2: a) OT-I CD8+ T cells were cultured with different metabolites in vitro as indicated, b,c) shown is the frequency of CD44^+CD62L^+ Tcm CD8+ T cells on day 8. d) OT-I CD8+ T cells were activated with α-CD3/α-CD28 antibodies in presence of metabolites as indicated and shown is the Tcm CD8+ T cells on day 7. Data represent the mean±s.e.m. (n=5).
(§2) Splenocytes from OT-I mice were obtained aseptically. The cells were cultured in 96-well plates (1×10^5 cells per well). For Tcm differentiation study, cells were activated with SIINFEKL peptide (4×10^−9M) in the presence of various metabolites (arginine: 3 mM; 3-methylhistidine: 3 mM; N-acetylneuraminate: 100 μM; disodium sebacate: 100 μM; DHB: 100 μM; pantothenate: 100 μM; γ-aminobutyric acid: 100 μM; glycerol: 100 μM; AICAR: 100 μM, sodium ferulate: 100 μM) for 3 days. Then cells were washed three times with T-cell medium and further cultured with IL-2 (10 ng ml^−1; PeproTech) in the presence of metabolites for 5 days. The cells were then washed twice and re-activated with SIINFEKL peptide (10 μM) for 2 h. The suspension cells were collected, blocked with CD16/32 antibody and stained with the fixable viability dye eFluor 450, FITC-CD44 rat anti-human/mouse and PE-CD62L monoclonal antibody. To test if the central memory CD8+ T cells differentiation is dependent on dendritic cells, CD8 T cells isolated from the spleen in OT-I mice were incubated in the 96-well plate, which was precoated with anti-hamster IgG antibody. […] (1 μg mL^−1) and IL-2 (100 U mL^−1) were added into each well in the presence of 3-methylhistidine (3 mM), DHB (100 μM), or sodium ferulate (100 μM) for 2 days. Then cells were washed for three times to remove α-CD3/α-CD28 antibodies and further incubated with metabolites and IL-2 (10 ng ml^−1) for 5 days. Thereafter, cells were collected for central memory CD8^+ T cells analysis. For CD8^+ T cells survival study, cells were activated with antigen peptide as above, following with thoroughly washing, and incubation in presence of IL-2 for 2 days. Metabolites were added during this incubation (arginine: 3 mM, 1 mM; 3-methylhistidine: 3 mM, 1 mM, 500 μM, 100 μM; N-acetylneuraminate: 100 μM; disodium sebacate: 100 μM; DHB: 100 μM, 50 μM, 20 μM; pantothenate: 100 μM; γ-aminobutyric acid: 100 μM; glycerol: 100 μM; AICAR: 100 μM). Then cells were further incubated in absence of both IL-2 and metabolites for 36 h to induce the apoptosis/dead. For Tcf1^+CD8^+ differentiation study, cells were activated with antigen peptide as above, followed by thoroughly washing, and incubation with metabolites in presence of IL-2 for 3 days. […] Tcf1^+CD8^+, CD44^+CD62L^+CD8^+ and survival (stained with Annexin V-APC and PI) T cells were detected via flow cytometry.

OT-I CD8+ T cells [2] = experiment: Tcm differentiation of isolated OT-I CD8+ T cells activated with α-CD3/α-CD28 in the absence of dendritic cells; assay type: cell-based, mice; details: α-CD3/α-CD28 activation; 3-methylhistidine 3 mM, DHB 100 μM; day 7
Protocol: as §1
Splenocytes from OT-I mice were obtained aseptically. The cells were cultured in 96-well plates (1×10^5 cells per well). For Tcm differentiation study, cells were activated with SIINFEKL peptide (4×10^−9M) in the presence of various metabolites (arginine: 3 mM; 3-methylhistidine: 3 mM; N-acetylneuraminate: 100 μM; disodium sebacate: 100 μM; DHB: 100 μM; pantothenate: 100 μM; γ-aminobutyric acid: 100 μM; glycerol: 100 μM; AICAR: 100 μM, sodium ferulate: 100 μM) for 3 days. Then cells were washed three times with T-cell medium and further cultured with IL-2 (10 ng ml^−1; PeproTech) in the presence of metabolites for 5 days. The cells were then washed twice and re-activated with SIINFEKL peptide (10 μM) for 2 h. The suspension cells were collected, blocked with CD16/32 antibody and stained with the fixable viability dye eFluor 450, FITC-CD44 rat anti-human/mouse and PE-CD62L monoclonal antibody. […] Tcf1^+CD8^+, CD44^+CD62L^+CD8^+ and survival (stained with Annexin V-APC and PI) T cells were detected via flow cytometry.

OT-I CD8+ T cells [3] = experiment: Tcf1+CD8+ differentiation of OT-I T cells with metabolites; assay type: cell-based, mice; details: day 6
Protocol: FIG. 3: a) OT-I CD8+ T cells were cultured with different metabolites in vitro as indicated, b,c) shown are the frequency of the Tcf1^+CD8+ T cells and the representative flow cytometry plots on day 6. Data represent the mean±s.e.m. (n=5).
as §2, with “days.” for “days. Metabolites were added during this incubation (arginine: 3 mM, 1 mM; 3-methylhistidine: 3 mM, 1 mM, 500 μM, 100 μM; N-acetylneuraminate: 100 μM; disodium sebacate: 100 μM; DHB: 100 μM, 50 μM, 20 μM; pantothenate: 100 μM; γ-aminobutyric acid: 100 μM; glycerol: 100 μM; AICAR: 100 μM). Then cells were further incubated in absence of both IL-2 and metabolites for 36 h to induce the apoptosis/dead. For Tcf1^+CD8^+ differentiation study, cells were activated with antigen peptide as above, followed by thoroughly washing, and incubation with metabolites in presence of IL-2 for 3 days.”

OT-I CD8+ T cells [4] = experiment: CD8+ T cell survival upon IL-2 withdrawal (Annexin V/PI); assay type: cell-based, mice; details: dependent on the dose of metabolites
Protocol: FIG. 4: a) OT-I CD8+ T cells were cultured with different metabolites in vitro as indicated, b,c) shown are the level of survival CD8+ T cells (Annexin V^−PI^−) as well as the representative flow cytometry plots on day 5.5. Data represent the mean±s.e.m. (n=5).
as §2, with “days.” for “days. Metabolites were added during this incubation (arginine: 3 mM, 1 mM; 3-methylhistidine: 3 mM, 1 mM, 500 μM, 100 μM; N-acetylneuraminate: 100 μM; disodium sebacate: 100 μM; DHB: 100 μM, 50 μM, 20 μM; pantothenate: 100 μM; γ-aminobutyric acid: 100 μM; glycerol: 100 μM; AICAR: 100 μM). Then cells were further incubated in absence of both IL-2 and metabolites for 36 h to induce the apoptosis/dead. For Tcf1^+CD8^+ differentiation study, cells were activated with antigen peptide as above, followed by thoroughly washing, and incubation with metabolites in presence of IL-2 for 3 days.”

[5] = test system: CT26 colon carcinoma cells; experiment: CT26 tumor model, intratumoral metabolites plus α-PD-1; assay type: in vivo, BALB/c mice
Protocol: FIG. 5: a) Therapeutic treatment regimen. BALB/c mice were s.c. inoculated with 1.5×10^5 CT26 colon carcinoma cells. The candidate metabolites were injected intratumorally every other day, 100 μg α-PD-1 was i.p. injected on days 9, 12, 16 and 20. b) Average tumor growth, c) individual tumor growth, and d) overall Kaplan-Meier survival are shown. Data represent the mean±s.e.m. (n=5).
(§3) Animals were cared for following the federal, state and local guidelines. All work conducted on animals was in accordance with and approved by the Institutional Animal Care and Use Committee (IACUC). Female (6-8 weeks old) BALB/c mice from Jackson Laboratory were inoculated with 1.5×10^5 CT26 cells per mouse on the right flank by s.c. injection. Tumor-bearing mice were randomly assigned to different treatment groups. For intratumoral injection study, the mice were injected with 3-methylhistidine (dose: 1 mg per mouse), sodium hippurate (dose: 1 mg per mouse), disodium sebacate (dose: 1 mg per mouse), sodium ferulate (dose: 1 mg per mouse), or DHB (dose: 0.5 mg per mouse) in 40 μL PBS buffer for every other day. The mice were i.p. injected with α-PD-1 antibody (100 μg per dose; clone RMP1-14, Bioxcell) on days 9, 12, 16 and 20 post tumor inoculation. For oral administration study, the mice were injected with 3-methylhistidine (dose: 3 mg per mouse), sodium hippurate (dose: 3 mg per mouse), disodium sebacate (dose: 3 mg per mouse), sodium ferulate (dose: 3 mg per mouse), or DHB (dose: 2.4 mg per mouse) in PBS buffer for 3 times every 4 days. α-PD-1 was injected on days 10, 14, 18 and 22. The tumor size was measured, and the tumor volume was calculated as ½×(length×width^2). Tumor-bearing mice were euthanized when the tumor size reached 1.5 cm in any diameter or when the animals became moribund with severe weight loss (>20%) or tumor ulceration.

[6] = test system: CT26 colon carcinoma cells; experiment: CT26 tumor model, orally administered metabolites plus α-PD-1; assay type: in vivo, BALB/c mice; details: oral gavage 3 times every 4 days (DHB 2.4 mg, 3-methylhistidine 3 mg per mouse) plus α-PD-1 i.p.
Protocol: FIG. 6: a) Therapeutic treatment regimen. BALB/c mice were s.c. inoculated with 1.5×10^5 CT26 colon carcinoma cells. The candidate agents were orally administrated 3 times every 4 days, 100 μg α-PD-1 was injected i.p. on days 10, 14, 18 and 22. b) Average tumor growth, c) individual tumor growth. Data represent the mean±s.e.m. (n=4-5).
as §3, with “For oral administration study, the mice were injected with 3-methylhistidine (dose: 3 mg per mouse), sodium hippurate (dose: 3 mg per mouse), disodium sebacate (dose: 3 mg per mouse), sodium ferulate (dose: 3 mg per mouse), or DHB (dose: 2.4 mg per mouse) in PBS buffer for 3 times every 4 days. α-PD-1 was injected on days 10, 14, 18 and 22.” left out, “Tumor-bearing mice were euthanized when the tumor size reached 1.5 cm in any diameter or when the animals became moribund with severe weight loss (>20%) or tumor ulceration.” left out

[7] = test system: activated T cells, MC38, B16F10, and CT26 tumor cells; experiment: In vitro cell viability of DHB at various concentrations; assay type: cell-based; details: concentration below 1 mM
Protocol: (§4) FIG. 7: a-d) In vitro cell viability of DHB at various concentrations in activated T cells, MC38, B16F10, and CT26 tumor cells. e) BALB/c mice were s.c. inoculated with 1.5×10^5 CT26 colon carcinoma cells. DHB (2.4 mg per dose) or 3-methylhistidine (3 mg per dose) was i.p. injected 3 times every 4 days, 100 μg α-PD-1 was i.p. injected on days 11, 15, and 20. Shown is the average tumor growth. Data represent the mean±s.e.m. (n=4-5).

[8] = test system: CT26 colon carcinoma cells; experiment: CT26 tumor model, metabolite monotherapy i.p. without α-PD-1; assay type: in vivo, BALB/c mice; details: monotherapy without α-PD-1 IgG; i.p. DHB 2.4 mg or 3-methylhistidine 3 mg per dose
Protocol: as §4

[9] = test system: CT26 colon carcinoma cells; experiment: CT26 tumor model, oral prodrug #717 plus α-PD-1; assay type: in vivo, BALB/c mice; details: 2 mg per dose every other day starting day 8
Protocol: FIG. 10: BALB/c mice were s.c. inoculated with 1.5×10^5 CT26 colon carcinoma cells. The prodrug #717 (2 mg per dose) were orally administrated every other day starting day 8. 100 μg α-PD-1 was injected i.p. on days 11 and 16. Shown is the average tumor growth. Data represent the mean±s.e.m. (n=5).

Row | Compound | differentiation of CD44+CD62L+ central memory CD8+ T cells (OT-I CD8+ T cells [1]) | induction of central memory CD8+ T cells in the absence of dendritic cells (OT-I CD8+ T cells [2]) | frequency of Tcf1+CD8+ T cells (OT-I CD8+ T cells [3]) | survival of activated CD8+ T cells (OT-I CD8+ T cells [4]) | systemic antitumor efficacy of α-PD-1 treatment and CT26 tumor growth ([5]; intratumoral every other day (DHB 0.5 mg, 3-methylhistidine 1 mg per mouse) plus α-PD-1 i.p.) | tumor-free mice on day 70 ([5]; intratumoral metabolite plus α-PD-1 i.p.) [%] | efficacy of α-PD-1 treatment [6] | cell toxicity [7] | tumor growth in vivo [8] | synergy with α-PD-1 against tumor growth in vivo [9]
1 | O=C(O)c1ccc(O)c(O)c1 [DHB, 3,4-dihydroxybenzoate] | significantly increased the differentiation | can also induce central memory CD8^+ T cells | increased the frequency | significantly increased the survival | improved the systemic antitumor efficacy of α-PD-1 treatment and slowed down the CT26 tumors growth | 80 | improved the efficacy of α-PD-1 treatment | low cell toxicity | did not inhibit the tumor growth | 
2 | COC(=O)[C@H](Cc1cncn1C)NC(=O)OC(C)(C)C [Prodrug #717, methyl Na-(tert-butoxycarbonyl)-Np-methyl-L-histidinate] |  |  |  |  |  |  |  |  |  | did not synergize
